The source of these data is article PMC11623990, “Deferasirox and Ciprofloxacin: Potential Ternary Complex Formation With Ferric Iron, Pharmacodynamic, and Pharmacokinetic Interactions” (The Scientific World Journal, 2024).

One may read the solubility as the concentration that dissolves in the medium under given conditions. Low values mean little dissolved substance, high ones much dissolved substance.

Data set [1] is described as follows: Level of DFX in plasma of iron-overloaded rats (HPLC). The class given is in vivo. Particulars: male, Wistar, rat, (SD), N = 8. As to the method:
(§1) Ethical approval of the study protocol was obtained from the Institutional Review Board at the University of Jordan (Approval No. 47–2022) on 17th May 2022 (document No. 19/2022/289). Throughout the study, all animals were housed, fed, and treated in accordance with The University of Jordan ethical guidelines for animal protection. The animal house of the University of Jordan, which is equipped with proper ventilation and temperature control (25 ± 4°C) systems, was utilized for the study. Each animal was placed in a separate standard cage. Sixteen male Wistar rats (6 weeks old, average weight 220 ± 10 g) were subjected to an iron-enriched diet containing 2.5% carbonyl iron according to Ackerman et al. for 6 weeks. Another group of eight rats (control group) was subjected to an ordinary pellet diet for the same period. The 16 animals with iron fortified diets were then separated into two groups of eight: the DFX group which received DFX alone and the DFX-CP group which received DFX plus CP, for 6 days. Drugs were given orally through proper mixing with food so that on average, each animal would ingest 30 mg/kg DFX daily incorporated within 15 gm of dried food. For the DFX-CP group, the 15 g dried food contained CP equivalent to 30 mg/kg of animal weight. Blood samples were collected from animals using the orbital venous plexus bleeding method with the aid of ether anesthesia in special EDTA tubes on days 1, 3, and 6 after initiation of the drug treatment. Blood samples were centrifuged, and plasma was collected in Eppendorf tubes and kept at −80°C until time of analysis for DFX. On the sixth day of the treatment, animals were sacrificed by cervical dislocation with the aid of mild anesthesia. […]
DFX was determined in plasma and GIT content using a slightly modified HPLC method from that employed in the solubility studies. […]
The method was properly validated for selectivity, precision, accuracy, and linearity. […] However, CP could not be determined by this method as it was coeluted early with other components of the plasma. […]

On the set-up of data set [2]: method as in PMID 10508341, doi:10.1002/ejic.200400363. Particulars: practically measured; cited from earlier work.
Data set [3] is described as follows: Apparent octanol/H2O partition coefficient. The class given is physicochemical. Particulars: (±SD) in brackets, n = 3. As to the method:
(§2) Excess solid of each compound to be tested was added to 6 mL of either phosphate buffer (pH 6.8), acetate buffer (pH 4.5), or 0.1 M HCl and left on a shaker water bath (37°C) for 24 h. One mL was centrifuged for 10 min, and 100 μL of the supernatant was properly diluted with the mobile phase (1:4) before being injected onto HPLC. For determination of octanol/H2O PC, 0.6 mL of the supernatant solution was transferred to a new tube containing 2 mL of octanol. Tubes containing the two layers of octanol and aqueous phase were kept on shaker water bath (37°C) for 24 h. Aliquots of aqueous layer were properly diluted with the mobile phase before being injected onto HPLC. The concentration of the drug in octanol layer was calculated by difference.

The subject of data set [4] is iron-overloaded rat model. The data set is described as follows: Level of iron in blood and other tissues determined by AAS. The format is in vivo, Wistar rats. Particulars: (SD), n = 8. As to the method:
Ethical approval of the study protocol was obtained from the Institutional Review Board at the University of Jordan (Approval No. 47–2022) on 17th May 2022 (document No. 19/2022/289). Throughout the study, all animals were housed, fed, and treated in accordance with The University of Jordan ethical guidelines for animal protection. The animal house of the University of Jordan, which is equipped with proper ventilation and temperature control (25 ± 4°C) systems, was utilized for the study. Each animal was placed in a separate standard cage. Sixteen male Wistar rats (6 weeks old, average weight 220 ± 10 g) were subjected to an iron-enriched diet containing 2.5% carbonyl iron according to Ackerman et al. for 6 weeks. Another group of eight rats (control group) was subjected to an ordinary pellet diet for the same period. The 16 animals with iron fortified diets were then separated into two groups of eight: the DFX group which received DFX alone and the DFX-CP group which received DFX plus CP, for 6 days. Drugs were given orally through proper mixing with food so that on average, each animal would ingest 30 mg/kg DFX daily incorporated within 15 gm of dried food. For the DFX-CP group, the 15 g dried food contained CP equivalent to 30 mg/kg of animal weight. Blood samples were collected from animals using the orbital venous plexus bleeding method with the aid of ether anesthesia in special EDTA tubes on days 1, 3, and 6 after initiation of the drug treatment. Blood samples were centrifuged, and plasma was collected in Eppendorf tubes and kept at −80°C until time of analysis for DFX. On the sixth day of the treatment, animals were sacrificed by cervical dislocation with the aid of mild anesthesia. Liver, heart, kidney, spleen, and the whole gastrointestinal tract (GIT) of all animals were collected and immediately stored in 10% formalin solution for further assessment.
Accurately weighed samples of the tissues to be determined (90–120 mg for liver, and 50–80 mg for heart and spleen) were digested in 1.5 mL of concentrated H2SO4 at 60°C for two days. Samples were vortex mixed and initially diluted 12 times using 2M HCl and filtered using a 0.45 μm PTFE syringe filters. Further dilutions were made if necessary and as appropriate upon sample measurement. Samples were read on Aurora AI1200 atomic absorption spectrophotometer at the specific wavelength of iron. FeCl3 standard solution 1000 μg/mL (Scharlau, Spain) was used to prepare calibration curve solutions. Proper blank samples were prepared along with the calibration curve of standard iron solution. Linearity was established in the range 0.1–8 µg/mL, with a linearity coefficient > 0.99. A typical calibration equation was […]. For statistical analysis, the potential existence of a significant difference between the averages of two groups, a t-test was employed using GraphPad software.

A short description of data set [5]: Saturation solubility, shake-flask with HPLC. The class given is physicochemical. Particulars: (±SD) in brackets, n = 3. As to the method:
The molar ratio of association between iron and either of the drugs was determined by completely dissolving 2.7 mg of the metal complex products in 10 mL of a mixture of butanol, DMSO, and DMF (3:5:2). Solutions were then diluted twice in DMSO and five times in mobile phase before being injected into HPLC. The developed HPLC method was validated for this purpose and for the determination of solubility and partition coefficients (PCs). The optimum conditions developed comprised a phenyl column (4.6 mm ID; 150 mm·L; Thermo Scientific Hypersil) with a mobile phase consisting of 34% acetonitrile in a 50 mM phosphate buffer. The mobile phase mixture contained 0.032% citric acid, 0.02% EDTA, 0.032% hydroxylamine HCl, and 0.07% trimethylamine, with the overall pH adjusted to 3.7. The mobile phase was delivered isocratically at a flow rate of 1.2 mL/min, and chromatograms monitored at 290 nm.
as §2

Data set [6] relates to iron-overloaded rat model. Briefly: Histological assessment of organs (H&E and Pearl's stain for iron deposits). The format is in vivo, Wistar rats. As to the method: as §1, with “weight.” for “weight. Blood samples were collected from animals using the orbital venous plexus bleeding method with the aid of ether anesthesia in special EDTA tubes on days 1, 3, and 6 after initiation of the drug treatment. Blood samples were centrifuged, and plasma was collected in Eppendorf tubes and kept at −80°C until time of analysis for DFX. On the sixth day of the treatment, animals were sacrificed by cervical dislocation with the aid of mild anesthesia.”

Details of data set [7]: method as in PMID 10508341, doi:10.1002/ejic.200400363. As to conditions: cited from earlier work.

Structures are written as SMILES. ≈ marks a conversion by molar mass, not a printed value.

`O=C(O)c1ccc(-n2nc(-c3ccccc3O)nc2-c2ccccc2O)cc1` [DFX, Deferasirox] yielded a concentration at 1 day in data set [1] (1 day after start of drugs in food (30 mg/kg daily oral)) of 1200 ng/mL. The compound further gave a concentration at 3 day in data set [1] (3 days after start of drugs in food (30 mg/kg daily oral)) of 10700 ng/mL. In data set [1] (6 days after start of drugs in food (30 mg/kg daily oral)), this compound gave a concentration at 6 day of 9700 ng/mL. Further, the “Formation constants of DFX to Fe^3+” value in data set [2] was 10^37-10^38. Moreover, the Apparent partition coefficient in data set [3] (pH 4.5, 37°C) is 2.1 (5.7); in data set [3] (pH 6.8, 37°C) it was 7.9 (1.11). For the same compound, the “Content of iron in dried tissue” value in data set [4] (dried blood, 3 days after initiation of chelation therapy) is given as 4.73 (0.2) mg/100g of tissue; in data set [4] (dried blood, 6 days after initiation of chelation therapy), 4.94 (0.2) mg/100g of tissue; in data set [4] (heart, after 6 days of treatment) it was 50.3 (2.7) mg/100g of tissue; in data set [4] (liver, after 6 days of treatment), 162.6 (10.1) mg/100g of tissue; in data set [4] (spleen, after 6 days of treatment), 168.8 (9.8) mg/100g of tissue. Further, the solubility at 24 h in data set [5] (0.1 M HCl, pH 1.2, pH 1.2 (0.1 M HCl), 37°C) was determined as 9.9 µg/mL (≈ 26.5 µM); in data set [5] (acetate buffer, pH 4.5, pH 4.5 acetate buffer, 37°C), 19.1 µg/mL (≈ 51.2 µM); in data set [5] (phosphate buffer, 37 °C, pH 6.8, aqueous buffer, thermodynamic from solid, pH 6.8 phosphate buffer), 140 µg/mL (≈ 375 µM). Also, the Solubility in data set [5] (pH 6.8 phosphate buffer, 37°C, 24 h) was 140.8 (1.9) μg/mL. Further, the “Iron deposition in spleen tissue (Pearl's stain)” value in data set [6] (compared with the combined treatment group and the control group, seen in six out of eight animals) is reported as “clearly higher levels of deposited iron”. Further, in data set [6] (compared with the combined treatment group, seen in six of eight animals), the “Iron deposition in liver tissue (Pearl's stain)” value is reported as “higher level of iron deposition”. Moreover, in data set [7], the “Affinity of DFX to Fe^2+” value is “very low affinity”.
